Laboratory results published in article PMC10819430, “Binding Affinity and Mechanism of Six PFAS with Human Serum Albumin: Insights from Multi-Spectroscopy, DFT and Molecular Dynamics Approaches” (Toxics, 2024).
Several values for one entry are separate records, joined by “and”; a condition that tells them apart may be missing. Equal values may be shown once.

Columns and labels:
HSA [1] = biological target: T1, HSA (Homo sapiens, UniProt P02768); assay: 3D-EEM fluorescence spectra of HSA–PFAS; conditions: HSA 1 × 10^−6, PFAS 1.8 × 10^−5 mol·L^−1; for 3D-EEM Peak A Intensity F: HSA alone 673.66; for 3D-EEM Peak B Intensity F: HSA alone 996.906
T1 construct: HSA (≥96%) and six PFAS were all purchased from Aladdin Chemicals (Shanghai, China); purchased Aladdin Chemicals (Shanghai, China)
T1 sequence (P02768 25-609): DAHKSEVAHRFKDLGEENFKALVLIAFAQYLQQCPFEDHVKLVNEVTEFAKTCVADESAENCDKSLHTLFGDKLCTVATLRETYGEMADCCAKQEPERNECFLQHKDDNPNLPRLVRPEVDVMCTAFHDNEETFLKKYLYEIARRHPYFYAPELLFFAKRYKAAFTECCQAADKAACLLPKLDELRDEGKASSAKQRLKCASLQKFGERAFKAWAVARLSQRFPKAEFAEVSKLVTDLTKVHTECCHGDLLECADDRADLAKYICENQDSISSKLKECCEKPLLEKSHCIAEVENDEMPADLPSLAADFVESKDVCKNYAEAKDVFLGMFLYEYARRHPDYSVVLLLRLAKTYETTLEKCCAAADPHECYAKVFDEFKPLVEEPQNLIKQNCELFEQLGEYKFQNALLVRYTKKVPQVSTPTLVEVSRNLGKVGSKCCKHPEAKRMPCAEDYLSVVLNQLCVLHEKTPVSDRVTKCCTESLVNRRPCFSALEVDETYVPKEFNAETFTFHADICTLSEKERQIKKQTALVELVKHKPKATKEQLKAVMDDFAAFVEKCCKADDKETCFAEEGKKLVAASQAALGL
Description: The 3D-EEM spectra were recorded using specific scanning parameters at the scanning rate of 2400 nm·min^−1, an […] with 5 nm increments, and an emission of 280–550 nm with 2 nm increments. The concentrations of PFAS and HSA were set at 18 × 10^−6 mol·L^−1 and 1 × 10^−6 mol·L^−1, respectively.

[2] = biological target: T2, Human Serum Albumin (HSA) (Homo sapiens, UniProt P02768); assay: Fluorescence quenching of HSA by PFAS (Stern–Volmer, double logarithmic and Van't Hoff analysis); assay type: binding; conditions: for quenching of HSA fluorescence intensity: PFAS 1.8 × 10^−5 mol·L^−1, HSA 1 × 10^−6 mol·L^−1, 298 K; for ΔH / ΔS: Van't Hoff, 298–310 K; for affinity for HSA: fluorescence quenching experiments; for main interaction force from thermodynamic analysis: signs of ΔH and ΔS
T2 construct: HSA (≥96%) and six PFAS were all purchased from Aladdin Chemicals (Shanghai, China); purchased Aladdin Chemicals (Shanghai, China)
T2 sequence (P02768 25-609): as above
Description: Fluorescence quenching experiments greatly benefit studies on the interactions between ligands and proteins. Initially, 3 mL of HSA stock solution was put into a 10 mm square quartz cuvette. Following that, PFAS stock solution was gradually added to achieve various final concentrations, namely 0, 3, 6, 9, 12, 15, 18 × 10^−6 mol·L^−1. By incrementally increasing the molar ratio of PFAS vs. HSA up to 18, their binding characteristics can be better investigated.
A thermostat (TR-01A, Bishui Corp, Beijing, China) was used to precisely control the solution temperature, which was set at 298, 304, and 310 K. This device includes a temperature controller and a metal heating cuvette module in conjunction with a fluorometer. This thermostat has a temperature range of 20–60 °C (293–333 K) and an accuracy of 0.1 °C Celsius. This step is critical for keeping the experimental conditions stable. Following that, the samples were fluorescence-scanned with a fluorometer (Cary Eclipse, Agilent, CA, USA). The excitation wavelength was set at 275 nm to efficiently stimulate tryptophan (Trp) and tyrosine (Tyr) residues. Additional test parameters include an emission of 275–500 nm, scanning rate of 1200 nm/min and PTV voltage of 700 v. Fluorescence quenching experiments were repeated three times, and the average values were taken for further calculation.
Fluorescence internal filtration (IFE) refers to the phenomenon where the fluorescence intensity decreases during fluorescence measurement due to the absorption of excitation or emission light by sample components (small molecules or proteins) in solution [19, 20]. This phenomenon is more obvious in the samples with a high concentration of adsorbent. A fluorescence correction formula was used in this study to correct the IFE effect on the data, as follows: Fcorr=Fobs×10^Aex+Aem/2 where Fcorr and Fobs are corrected and observed fluorescence emission intensities, respectively, Aex and Aem are UV-vis absorbances at the excitation and emission wavelengths.
The quenching constant can be calculated using the Stern–Volmer Equation (3). The results are shown in Table 2 and Figure 1: F0/F=1+Kqτ0=1+KsvQ where F0 and F refer to HSA fluorescence intensities without and with the quencher (PFAS solution); Kq is the biomacromolecule’s quenching rate constant; τ0 is the average fluorescence lifetime of the fluorescent molecule when the quencher PFAS is absent, usually taken as 10^−8 s; [Q] is the PFAS concentration; Ksv is the Stern–Volmer quenching constant; F0/F is the vertical axis; the Stern–Volmer curves of this system are 298, 304, and 310 K.
The double logarithmic formula can be used to calculate the binding constants and binding site numbers of HSA–PFAS complexes: logF0−F/F=logKb+nlogQ where F0 and F are parameters representing the initial fluorescence intensity and the fluorescence intensity after adding PFAS, respectively. The binding characteristics are represented by the binding constant, Kb, and the number of binding sites, n. The slope of the straight line is the number of binding sites, n, and the binding constant Kb is obtained from the exponent of the straight line’s intercept using the double logarithmic graph. Figure A2 and Table 2 show the calculation results.
The enthalpy change (∆H), entropy change (∆S), and free energy change (∆G) calculated from the Van’t Hoff equation [50] can be used to determine the type of interaction. lnKb=−ΔH/RT+ΔS/R ΔG=ΔH−TΔS=−RTlnKb where R represents the ideal gas constant (8.314 J·mol^−1·K^−1).

HSA [3] = biological target: T1, HSA; assay: Circular dichroism (CD) spectrum, secondary structure of HSA; conditions: HSA:PFAS 1:18, 298 K; for HSA secondary structure: β-Sheet: HSA alone 4.9; for HSA secondary structure: β-Turn: HSA alone 16.9; for HSA secondary structure: Random Coil: HSA alone 36.7; for HSA secondary structure: α-Helix: HSA alone 41.6
Source text: CD measurements (190–260 nm) were taken before and after the addition of PFAS to HSA using a J-815 CD spectrometer equipped with a PMT detector (JASCO, Tokyo, Japan). The protein concentration was set at 1 × 10^−6 mol/L, with a fixed HSA-to-PFAS concentration ratio of 1:18. The scanning rate was set to 100 nm/min with 0.5 nm increments, and the photometric mode of HT. Each sample was scanned three times. The blank buffer control was automatically subtracted during the scanning process. All tests were carried out at 298 K. The CONTIN analysis method from the DichroWeb was employed to determine the contents of the protein’s secondary structure.

HSA [4] = biological target: T1, HSA; assay: Competitive probe experiment (warfarin, ibuprofen, lidocaine); assay type: binding
Source text: Competitive probe experiments are commonly used to identify specific binding sites in the structure of proteins. Three probe molecules known to bind to distinct binding sites on HSA were selected: warfarin (subdomain IIA), ibuprofen (subdomain IIIA), and lidocaine (subdomain IIB). These probe molecules would compete with PFAS for the same protein sites when binding with HSA. The potential binding sites can be inferred by monitoring and comparing changes in fluorescence intensity when probe molecules are present.

Row | SMILES | 3D-EEM Peak A Position λex/λem (HSA [1]) | 3D-EEM Peak B Position λex/λem (HSA [1]) | 3D-EEM Peak A Intensity F (HSA [1]) [a.u.] | 3D-EEM Peak B Intensity F (HSA [1]) [a.u.] | fluorescence quenching mechanism [2] | quenching of HSA fluorescence intensity [2] [%] | KSV (Stern–Volmer quenching constant) ([2]; T = 298 K) | n (number of binding sites) ([2]; T = 298 K) | ΔG ([2]; T = 298 K) [kcal/mol] | Kq (quenching rate constant) ([2]; T = 298 K, τ0 taken as 10^−8 s) | KSV (Stern–Volmer quenching constant) ([2]; T = 304 K) | n (number of binding sites) ([2]; T = 304 K) | ΔG ([2]; T = 304 K) [kcal/mol] | Kq (quenching rate constant) ([2]; T = 304 K, τ0 taken as 10^−8 s) | KSV (Stern–Volmer quenching constant) ([2]; T = 310 K) | n (number of binding sites) ([2]; T = 310 K) | ΔG ([2]; T = 310 K) [kcal/mol] | Kq (quenching rate constant) ([2]; T = 310 K, τ0 taken as 10^−8 s) | ΔH [2] [kcal/mol] | ΔS [2] [J·mol^−1·K^−1] | further results
1 | O=C(O)C(F)(OC(F)(F)C(F)(OC(F)(F)C(F)(F)C(F)(F)F)C(F)(F)F)C(F)(F)F (stereo not drawn) [HFPO-TA, Perfluoro-2,5-dimethyl-3,6-dioxanonanoic Acid] | 280/321 | 230/314 | 499.16 | 861.38 | mixed quenching | 25.1 | 1.78 ± 0.09 × 10^4 L·mol^−1 | 1.49 ± 0.03 | -8.956 | 1.78 ± 0.09 × 10^12 L·mol^−1·s^−1 | 1.95 ± 0.13 × 10^4 L·mol^−1 | 1.78 ± 0.07 | -11.03 | 1.95 ± 0.13 × 10^12 L·mol^−1·s^−1 | 1.98 ± 0.08 × 10^4 L·mol^−1 | 2.09 and 2.09 ± 0.08 | -13.28 | 1.98 ± 0.08 × 10^12 L·mol^−1·s^−1 | 98.506 ± 2.02 | 1508.3 ± 30.8 | Kq (quenching rate constant) ([2]; 298 K): 1.78e+12 L/mol/s; HSA fluorescence peak position after PFAS addition (blue shift from 337 nm) ([2]; as the concentration of PFAS increases): 315 nm; affinity for HSA [2]: high affinity; main interaction force from thermodynamic analysis [2]: hydrophobic interactions; HSA secondary structure: β-Sheet (HSA [3]): 5.1%; HSA secondary structure: β-Turn (HSA [3]): 15.8%; HSA secondary structure: Random Coil (HSA [3]): 38.5%; HSA secondary structure: α-Helix (HSA [3]): 40.6%; φ (rate of decrease in Kb) (HSA [4]; ibuprofen probe): 23.8%; φ (rate of decrease in Kb) (HSA [4]; lidocaine probe): 35.3%; φ (rate of decrease in Kb) (HSA [4]; warfarin probe): 99.6%
2 | O=C(O)C(F)(F)C(F)(F)C(F)(F)C(F)(F)C(F)(F)C(F)(F)F [PFHpA, Perfluoroheptanoic Acid] | 280/336 | 230/335 | 656.89 | 997.01 | static quenching | 12.1 | 0.69 ± 0.05 × 10^4 L·mol^−1 | 0.96 ± 0.04 | -4.986 | 0.69 ± 0.05 × 10^12 L·mol^−1·s^−1 | 0.53 ± 0.07 × 10^4 L·mol^−1 | 1.42 ± 0.06 | -7.968 | 0.53 ± 0.07 × 10^12 L·mol^−1·s^−1 | 0.32 ± 0.04 × 10^4 L·mol^−1 | 1.50 ± 0.05 | -8.332 | 0.32 ± 0.04 × 10^12 L·mol^−1·s^−1 | 77.672 ± 3.399 | 1166.7 ± 42.7 | affinity for HSA [2]: low affinity; main interaction force from thermodynamic analysis [2]: hydrophobic interactions; HSA secondary structure: β-Sheet (HSA [3]): 5.5%; HSA secondary structure: β-Turn (HSA [3]): 15.5%; HSA secondary structure: Random Coil (HSA [3]): 39.4%; HSA secondary structure: α-Helix (HSA [3]): 39.6%; φ (rate of decrease in Kb) (HSA [4]; ibuprofen probe): 42.7%; φ (rate of decrease in Kb) (HSA [4]; lidocaine probe): 48.8%; φ (rate of decrease in Kb) (HSA [4]; warfarin probe): 98.9%
